Source: publication PMC6533572, “Elucidation of the Differences in Cinobufotalin’s Pharmacokinetics Between Normal and Diethylnitrosamine-Injured Rats: The Role of P-Glycoprotein” (Frontiers in Pharmacology, 2019)

Test system: MDCK II cells
Assay: Cellular uptake (intracellular accumulation) in MDCK II cells
Format: in vitro ADME, canine
Settings: verapamil 100 μM, 2 h
Procedure: Madin Darby canine kidney (MDCK II) cells stably transfected with multidrug resistance 1 gene (MDCK-MDR1 cells) were conducted and used in cinobufotalin uptake studies. Wild type MDCK II or MDCK-MDR1 cells were seeded into six-well plates at the destiny of 2 × 10^5 cells/well and maintained at 37°C under 5% CO2 in DMEM with 10% FBS. The well-known P-gp inhibitor, verapamil (100 μM), was used as the positive control to evaluate the effect of P-gp on cinobufotalin uptake ([Bicker et al., 2017]).
The uptake experiment was performed when the cells reached 100% confluency. First, cells were washed three times using 37°C Hanks’ balanced salt solution (HBSS) buffer (pH = 7.2). Then, 2 mL HBSS (37°C, pH = 7.2) buffer containing cinobufotalin (5 and 20 μM) were added and incubated with cells in the absence or presence of potential P-gp inhibitors, verapamil (100 μM). After incubation for 2 h, the incubation medium was removed, and cells were washed three times using ice-cold HBSS buffer. Then 400 μL of ice-cold MeOH:H2O (1:1, v/v) were added into each well, the cells were collected and sonicated for 15 min in ice-cold water. The mixture was centrifuged at 4°C (12,000 g, 10 min), and the supernatant was subjected to UPLC-QTOF/MS for analyses.

SMILES: CC(=O)O[C@H]1[C@H]2O[C@]23[C@@H]2CC[C@]4(O)C[C@@H](O)CC[C@]4(C)[C@H]2CC[C@]3(C)[C@H]1c1ccc(=O)oc1 [Cinobufotalin]
- effect of verapamil on the intracellular accumulation of cinobufotalin: did not alter
